# System: HEK293 cells
# Experiment: Viability of HEK293 cells in culture with test compound
# Assay type: cell-based, human
# Parameters: key: ns: results are not shown due to poor viability of HEK293 cells in culture at the indicated compound concentration
# Conditions: 10^−3 dilution of working concentration of Table 4 (D 0.1 millimolar); 6 days of culture
smiles,measurement,value
"O=P(O)(O)C(O)(Cn1ccnc1)P(=O)(O)O [Compound D, zolendronic acid]",Viability of HEK293 cells in culture,ns^2

# — patent US20070032443A1, “Therapy for Alzheimer's disease” (priority 2005, published 2007)
